Measured values published in publication PMC10671313, “First Gallium and Indium Crystal Structures of Curcuminoid Homoleptic Complexes: All-Different Ligand Stereochemistry and Cytotoxic Potential” (International Journal of Molecular Sciences, 2023).
“Also recorded” adds a separate entry of the source. Like-named read-outs stand apart in the source and are kept apart here.

What was measured:
Type in all cases: cell-based
[1] = test system: HCT-15 (human colon adenocarcinoma); test: SRB cytotoxicity assay, HCT-15 cells
Procedure: (§1) The cytotoxicity of all compounds was assessed against several cancer cell lines, namely U251 (human glioblastoma), PC-3 (human prostate adenocarcinoma), K562 (human chronic myelogenous leukemia), HCT-15 (human colon adenocarcinoma), MCF-7 (human mammary adenocarcinoma), SKLU-1 (human lung adenocarcinoma), and COS-7 (non-tumoral monkey kidney). These cell lines were obtained from the U.S. National Cancer Institute (NCI) (Montgomery County, MD, USA). The cells were cultured in RPMI-1640 medium supplemented with 10% fetal bovine serum, 2 mM L-glutamine, 10,000 units/mL penicillin G sodium, 10,000 μg/mL streptomycin sulfate, 25 μg/mL amphotericin B (Invitrogen/Gibco^TM, Thermo Fisher Scientific, Waltham, MA, USA), and 1% non-essential amino acids (Gibco). They were maintained at a temperature of 37 °C in a humidified atmosphere containing 5% CO2. The experiment’s cell viability exceeded 95%, as determined using trypan blue staining. To evaluate the cytotoxicity on human tumor cells, the protein-binding dye sulforhodamine B (SRB) was employed in a microculture assay, following the protocols established by the NCI [52, 53, 54]. The results were reported as IC50 values, representing the inhibitory concentration required for 50% inhibition. The IC50 values were determined using the Monks protocol, which involved plotting dose-response curves for each compound and estimating the concentration (IC50) at which a 50% inhibition was observed through non-linear regression analysis.

[2] = test system: U251 (human glioblastoma); test: SRB cytotoxicity assay, U251 cells
Procedure: as §1

[3] = test system: PC-3 (human prostate adenocarcinoma); test: SRB cytotoxicity assay, PC-3 cells
Procedure: as §1

[4] = test system: K562 (human chronic myelogenous leukemia); test: SRB cytotoxicity assay, K562 cells
Procedure: as §1

[5] = test system: MCF-7 (human mammary adenocarcinoma); test: SRB cytotoxicity assay, MCF-7 cells
Procedure: as §1

[6] = test system: SKLU-1 (human lung adenocarcinoma); test: SRB cytotoxicity assay, SKLU-1 cells
Procedure: as §1

[7] = test system: COS-7 (non-tumoral monkey kidney); test: SRB cytotoxicity assay, COS-7 non-tumoral cells
Procedure: as §1

[8] = HCT15 cell line, SRB assay, read-out: IC50 HCT15
[9] = U251 cell line, SRB assay, read-out: IC50 U251
[10] = PC-3 cell line, SRB assay, read-out: IC50 PC-3
[11] = K562 cell line, SRB assay, read-out: IC50 K562
[12] = MCF7 cell line, SRB assay, read-out: IC50 MCF7
[13] = SKLU-1 cell line, SRB assay, read-out: IC50 SKLU-1
[14] = non-cancerous COS-7 cells, SRB assay, read-out: IC50 COS-7

| Molecule | IC50 [1, 8] [µM] | IC50 [2, 9] [µM] | IC50 [3, 10] [µM] | IC50 [4, 11] [µM] | IC50 [5, 12] [µM] | IC50 [6, 13] [µM] | IC50 [7, 14] [µM] | other results |
| --- | --- | --- | --- | --- | --- | --- | --- | --- |
| N.N.[Cl][Pt][Cl] [Cisplatin, reference compound] | 10 ± 0.9 | – | – | – | – | – | – | – |
| COc1ccc(/C=C/C(=O)/C=C(O)/C=C/c2ccc(OC)c(OC)c2)cc1OC [DiMeOC, Dimethoxycurcumin] | – | – | – | – | – | – | – | IC50 ([2]; Homo sapiens, U-251, read-out: IC50 U251): 2.02 ± 0.07 µM; IC50 ([3]; Homo sapiens, PC-3, read-out: IC50 PC-3): 5.9 ± 0.6 µM; IC50 ([4]; Homo sapiens, K562, read-out: IC50 K562): 6.5 ± 1.4 µM; IC50 ([1]; Homo sapiens, HCT-15, read-out: IC50 HCT15): 6.6 ± 0.3 µM; IC50 ([5]; Homo sapiens, MCF7, read-out: IC50 MCF7): 6.9 ± 1 µM; IC50 ([6]; Homo sapiens, SK-LU-1, read-out: IC50 SKLU-1): 7.2 ± 0.4 µM; IC50 ([7]; Primates, COS-7, read-out: IC50 COS-7): 2.02 ± 0.07 µM |
| Curcumin [reference compound] | 21.3 ± 0.9 | 20.5 ± 1.7 | 22.5 ± 1.9 | 16.4 ± 0.04 | 18.4 ± 0.9 | 12.9 ± 0.7 | 21.8 ± 2.1 | – |
| Dimethoxycurcumin gallium [(DiMeOC)2-Ga] | – | 5.3 ± 0.1 | 10.5 ± 0.3 | 2 ± 0.2 | 15.5 ± 0.4 | – | 23.2 ± 1.9 | Selectivity: IC50 in COS-7 compared to U251 ([2]; COS-7 vs U251, times less cytotoxic): 4 times; Selectivity: IC50 in COS-7 compared to PC-3 ([3]; COS-7 vs PC-3, times less cytotoxic): 2 times; Selectivity: IC50 in COS-7 compared to K562 ([4]; COS-7 vs K562, times less cytotoxic): 11 times; Toxicity relative to cisplatin ([7]; lower toxicity than cisplatin (non-cancerous COS-7)): three times lesser toxicity than cisplatin; also recorded: up to three times lower toxicity than cisplatin |
| Dimethoxycurcumin indium [(DiMeOC)3-In] | 7.9 ± 0.2 | 6.3 ± 0.6 | 7.6 ± 0.05 | – | 9.7 ± 0.4 | 6.2 ± 0.4 | – | – |
